Here are results for four compounds from US12077566B2, “Mutants of recombinant immunoregulatory protein of Ganoderma lucidum and applications thereof” (priority 2017, dated 2024).

The subject of data set [1] is rLZ-8 internalization in Hep G2 cells. The experiment in a line: Inhibitor screening of rLZ-8 endocytosis. It counts as cell-based. As to the method:
The rLZ-8 is labeled by an Alexa Fluor 568 fluorescent probe; then 10 μg/mL fluorescent labeled rLZ-8 acts on Hep G2 cells for 3 hours; whether the rLZ-8 enters the cell is observed with the ultrahigh resolution imaging system; and obtained images are reconstructed, fitted and further analyzed through an image analysis software of Imaris.
Inhibitors of different internalization ways are selected, respectively EIPA (macropinocytosis inhibitor), Wortmannin/LY294002 (P13K inhibitor), Nystatin+Progesterone (caveolae inhibitor) and Chlorpromazine (clathrin inhibitor); the inhibitors respectively act on the Hep G2 cells, and inhibitory effects of the inhibitors on rLZ-8 endocytosis are observed.

In data set [2] the test system is human liver cancer Hep G2 cells. The note with it: for Mice weight after experiment: mouse, in vivo; for Mice tumor weight after experiment / Survival rate of mice after experiment: qd×28 i.v., rLZ-8 and mutants 0.5 mg/kg, sorafenib 50 mg/kg; for Survival rate of mice after experiment: 10 mice per group. The text has this: Two weeks later, the model mice are divided into groups randomly, and each group has 10 mice. The administration method is caudal vein injection, once a day, for consecutive 28 days (qd×28, i.v.). […] During the experiment, if the mouse dies, the dead mouse is weighted on the same day, and the tumor tissue is taken out to be weighted. For the living mouse after administration for 28 days, the mouse is killed, and then the tumor tissue is taken out to be weighted. The death time and death number of the mice in each group are recorded in detail; the survival conditions of the mice of the experimental groups and the control groups are analyzed, and the survival rate is calculated, wherein the survival rate is obtained through subtracting the death number of the mice from the total number of the mice, and then dividing the difference by the total number of the mice.

For data set [3], the system named is human colon cancer SW480 cells. Put plainly: Transplantation tumor model of human colon cancer SW480 cells. The data set is classed as in vivo, BALB/c nude mice. The conditions noted are these: after administration for 28 days.
Description: The RPMI1640 medium containing 10% fetal bovine serum is selected for the human colon cancer SW480 cells, and then is placed in the CO2 constant-temperature incubator at 37° C. for culturing. The SW480 cells at the logarithmic phase are digested by pancreatin and thereafter washed with serum-free RPMI1640 medium; 2×10^6 cells are inoculated below the back skin of the BALB/c nude mice; after the tumor blocks for observation are formed and have the diameter larger than 0.5 cm, the mice are divided into groups randomly; and the transplantation tumor model of human colon cancer SW480 cells are constructed in the BALB/c nude mice.
For data set [4], the system named is human lung cancer A549 cells. Put plainly: Orthotopic transplantation tumor model of human lung cancer A549 cells.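 Also: test animals were NOG mice aged 6-8 weeks.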 The conditions noted are these: after administration for 28 days.
Data set [5] deals with EGFR extracellular domain (Homo sapiens, UniProt P00533). The experiment in a line: Affinity test by surface plasmon resonance (Biacore T200, CM5 chip). The data set is classed as binding. The conditions noted are these: EGFR extracellular domain coupled on CM5 chip, analyte 4-256 nM. On the procedure:
The Biacore™ T200 equipment (a Surface Plasmon Resonance from GE Company) is selected. Through the surface plasma resonance technology, the affinity of the rLZ-8 and the mutants thereof to the EGFR extracellular domain is tested. The CM5 chip is adopted to serve as the affinity test chip.
The EGFR extracellular domain (with an amino acid sequence of 25-645) serves as the ligand for coupling; 1 mg EGFR freeze-dried powders are diluted with HEPES buffer solution to a concentration of 400 μg/mL and set aside. Three 1.5 mL EP tubes are prepared; 10 μL ligand are respectively added into the three tubes, then 90 μL 10 mM sodium acetate with different pH values of 4.5, 5.0 and 5.5 are respectively added into the tubes and are mixed completely and uniformly; and a final concentration of the ligand is 40 μg/mL. Moreover, 200 μL 50 mM sodium acetate is added into another 1.5 mL EP tube.
The ligand has a molecular weight of 70 kDa, the analyte (rLZ-8) has a molecular weight of 12.4 kDa. In theory, one rLZ-8 […] can bind with one EGFR, and thus the stoichiometric ratio Sm is equal to 1. Through the following equations, the coupling amount RL of the ligand is calculated.
Through the experimental experience, the optimal reagent coupling amount is set to be 3*RL, and the coupling amount is set to be 1700 RU. The EGFR extracellular domain is successively coupled on the CM5 chip. […]
(In general: In SPR one partner is held on a chip, and binding of the other changes the refractive index at the surface.)

For data set [6], the system named is human breast cancer MCF7 cells. The experiment in a line: Orthotopic transplantation tumor model of human breast cancer MCF7 cells. The data set is classed as in vivo, BALB/c nude mice. The conditions noted are these: after administration for 28 days. On the procedure: One day before the experiment, 0.5 mg of 17ß estradiol sustained release tablet is embedded below the neck skin of the BALB/c nude mice.

A further data set has as its system Hep G2 cells. The experiment in a line: Cell death after rLZ-8 internalization. It counts as cell-based. The note with it: 100 μg/mL, 5 hours. The source says:
With the ultrahigh resolution imaging system, the whole change process of the cell after the internalization of the rLZ-8 is observed in real time; and, combined with the above researches, the reason why the rLZ-8 causes the tumor cell death is judged.

A further data set has as its system S180. The conditions noted are these: mouse; cited from earlier work.
The subject of data set [7] is transplanted liver cancer cells H22. The note with it: mouse; cited from earlier work.
Data set [8] concerns EGFR, c-Met, PDGFR, N-cadherin and LDLR. The experiment in a line: Immunofluorescence co-localization of rLZ-8 with membrane receptors. The data set is classed as cell-based. On the procedure:
Considering that the high internalization degree of the rLZ-8 may be caused by the internalization after binding with a receptor on the cytomembrane, the rLZ-8 and the receptor on the cytomembrane are screened. Relationships between the different receptors on the cytomembrane and the tLZ-8 are measured through an immunofluorescence method. Fluorescent labels are made respectively on antibodies of EGFR, c-Met, PDGFR, N-cadherin and LDLR, and co-localization situations thereof with the rLZ-8 are respectively observed.

Turning to `CCN(c1nc(N)c(C(=O)NC(=N)N)nc1Cl)C(C)C` [EIPA], the “Inhibitory effect on rLZ-8 internalization (in words)” value in data set [1] (Hep G2 cells) was “effectively inhibits the internalization of the rLZ-8”.
On to `CNC(=O)c1cc(Oc2ccc(NC(=O)Nc3ccc(Cl)c(C(F)(F)F)c3)cc2)ccn1` [Sorafenib, sorafenib, reference compound], for which, in data set [2], the “Mice weight after experiment” value amounted to 19.6 ± 1.6 g, the “Mice tumor weight after experiment” value is recorded as 0.82 ± 0.37 g and the “Survival rate of mice after experiment” value was determined as 50%.
In the case of mβCD, the “Inhibition of internalization efficiency of the rLZ-8” value in data set [1] turned out to be 50%.
Take “rLZ-8: recombinant immunoprotein of Ganoderma lucidum, sequence SEQ ID NO: 1, expressed in Pichia pastoris”: in data set [2], the “Mice weight after experiment” value is reported as 19.8 ± 1.4 g, the “Mice tumor weight after experiment” value is given as 0.62 ± 0.53 g and the “Survival rate of mice after experiment” value is given as 60%. In addition, the “Mice tumor weight after experiment” value in data set [3] was 1.94 ± 0.43 g. In addition, in data set [4], the “Mice survival rate after experiment” value is 50%, the “Mice tumor weight after experiment” value was determined as 0.60 ± 0.45 g and the “Mice weight after experiment” value is given as 20.8 ± 1.5 g. Further, in data set [5], the “Dissociation rate constant (koff)” value amounted to 0.000583 s⁻¹ and the Ka turned out to be 63400 M⁻¹ s⁻¹. Also, in the data set “In vivo half-life period”, the “In vivo half-life period (in words)” value is listed as “relatively short in vivo half-life period”. For the same compound, in data set [6], the “Mice tumor weight after experiment” value came out at 0.74 ± 0.35 g. Besides, the “Cell death (in words)” value in the data set on Hep G2 cells is “shrinkage, burst and death of Hep G2 cells happen”. Moreover, the “In vivo tumor growth (in words)” value with S180 was “can inhibit the in vivo growth”. Moreover, the “In vivo tumor growth (in words)” value in data set [7] is “can inhibit the in vivo growth”. Further, in data set [8], the “Co-localization with other internalization-related membrane receptors (in words)” value was “no co-localization phenomenon” and the “Co-localization with the EGFR (in words)” value was “high-degree co-localization phenomenon”.
